Reference: PMC9944328 (Nature Communications, 2023)
pEC50: −log10 of the molar value. Where two headings read alike, the source gives them in different places.

Tested on: SSTR2 mutants
Test: SSTRs Gi-mediated cAMP inhibition, GloSensor, HEK293, 5 μM forskolin, 15 min room temperature (SSTR2 mutants)
Assay type: cell-based, human
Parameters: Best-fit Bottom, cAMP inhibition / Best-fit Top, cAMP inhibition / Span, cAMP inhibition / Bottom (best-fit value) / Top (best-fit value) / Span (best-fit value) / Span (best-fit) / Bottom (best-fit) / Top (best-fit) / Best-fit Bottom / Best-fit Top / Best-fit Span / Top / Span: scale not given here
Protocol: The levels of the intracellular 3′, 5′-cyclic AMP (cAMP) were measured by the GloSensor cAMP assay (Promega) as described in the previous studies[28],[41] which has been widely used. The human full-length SSTRs and mutants were cloned into the pcDNA3.1+ vector with a HA signal sequence followed by a Flag tag at the N-terminus. HEK293 cells (ATCC, CRL-1573) were seeded into 6-well microplates at a density of 1.0 × 10^6 cells/well and cultured for 24 h at 37 °C with 5% CO2. Cells were then co-transfected with SSTR wild-type or mutants and GloSensor plasmids. After 24 h of transfection, the cells were dissociated with TrypLE™ Express Enzyme (1X) (Thermo Fisher Scientific) and collected by centrifugation at 500 × g for 5 min. Then the collected cells were suspended in Hank’s balanced salt solution [HBSS (Thermo Fisher Scientific)] supplemented with […] (YEASEN), and then the suspension cells were seeded into 96-well plates with 90 μl/well. After incubating at room temperature for 40 min, 5 μM forskolin and ligands diluted in HBSS were added to each well and the plates were incubated at room temperature for 15 min. […] were measured using the Synergy H1 microplate reader (BioTek) and the data presented are means of at least three independent experiments.

## C[C@@H](O)[C@@H]1NC(=O)[C@H](CCCCN)NC(=O)[C@@H](Cc2c[nH]c3ccccc23)NC(=O)[C@H](Cc2ccccc2)NC(=O)[C@@H](NC(=O)[C@H](N)Cc2ccccc2)CSSC[C@@H](C(=O)N[C@H](CO)[C@@H](C)O)NC1=O [octreotide]
I284A-1, run 1
  Top (best-fit value): 116.3
I284A-1, run 1, read-out: EC50 (best-fit value)
  pEC50: 8.87
I284A-2, run 2
  Bottom (best-fit value): -11.95
  LogEC50 (best-fit value): -9.363
  Span (best-fit value): 136.5
  Top (best-fit value): 124.6
I284A-2, run 2, read-out: EC50 (best-fit value)
  pEC50: 9.36
I284A-3, run 3
  Bottom (best-fit value): -6.083
  LogEC50 (best-fit value): -8.813
  Span (best-fit value): 75.58
  Top (best-fit value): 69.5
I284A-3, run 3, read-out: EC50 (best-fit value)
  pEC50: 8.81
I284ECL3A and K291(7.32)A
  Impact on Gi protein pathway: relatively small
K291A-1
  Best-fit Bottom: -13.76
  Best-fit Span: 86.2
  Best-fit Top: 72.44
  LogEC50: -8.384
K291A-1, read-out: EC50
  pEC50: 8.40
K291A-2
  Best-fit Bottom: -3.629
  Best-fit Span: 91.53
  Best-fit Top: 87.9
  LogEC50: -8.328
K291A-2, read-out: EC50
  pEC50: 8.33
K291A-3
  Best-fit Bottom: 3.692
  Best-fit Span: 104.2
  Best-fit Top: 107.9
  LogEC50: -8.123
K291A-3, read-out: EC50
  pEC50: 8.12
L290A-1
  Best-fit Bottom: 32.91
  Best-fit Span: 84.91
  Best-fit Top: 117.8
  LogEC50: -9.231
L290A-1, read-out: EC50
  pEC50: 9.23
L290A-2
  Best-fit Span: 90.85
  Best-fit Top: 95.5
  LogEC50: -9.519
L290A-3
  Best-fit Bottom: 2.997
  Best-fit Span: 94.23
  Best-fit Top: 97.22
  LogEC50: -9.438
L290A-3, read-out: EC50
  pEC50: 9.44
N276(6.55)A
  Gi signaling of mutant: still exerted Gi signaling activation
N276A-1
  Bottom (best-fit): -14.21
  LogEC50 (best-fit): -7.981
  Span (best-fit): 75.87
  Top (best-fit): 61.65
N276A-1, read-out: EC50 (best-fit)
  pEC50: 7.98
N276A-2
  Bottom (best-fit): 0.8581
  LogEC50 (best-fit): -7.561
  Span (best-fit): 112.9
  Top (best-fit): 113.7
N276A-2, read-out: EC50 (best-fit)
  pEC50: 7.56
N276A-3
  Bottom (best-fit): 2.316
  LogEC50 (best-fit): -7.587
  Span (best-fit): 109.8
  Top (best-fit): 112.1
N276A-3, read-out: EC50 (best-fit)
  pEC50: 7.59
P220A-1
  Bottom (best-fit): 19.71
  LogEC50 (best-fit): -9.136
  Span (best-fit): 47.88
  Top (best-fit): 67.58
P220A-1, read-out: EC50 (best-fit)
  pEC50: 9.14
P220A-2
  Bottom (best-fit): 10.44
  LogEC50 (best-fit): -8.311
  Span (best-fit): 101.1
  Top (best-fit): 111.6
P220A-2, read-out: EC50 (best-fit)
  pEC50: 8.31
P220A-3
  Bottom (best-fit): 7.137
  LogEC50 (best-fit): -8.347
  Span (best-fit): 101.3
  Top (best-fit): 108.4
P220A-3, read-out: EC50 (best-fit)
  pEC50: 8.35
P286A-1, run 1
  Bottom (best-fit value): -1.561
  LogEC50 (best-fit value): -9.311
  Span (best-fit value): 110.5
  Top (best-fit value): 108.9
P286A-1, run 1, read-out: EC50 (best-fit value)
  pEC50: 9.31
P286A-2, run 2
  Bottom (best-fit value): -0.685
  LogEC50 (best-fit value): -9.269
  Span (best-fit value): 107.2
  Top (best-fit value): 106.5
P286A-2, run 2, read-out: EC50 (best-fit value)
  pEC50: 9.27
P286A-3, run 3
  Bottom (best-fit value): -0.6493
  LogEC50 (best-fit value): -9.076
  Span (best-fit value): 92.48
  Top (best-fit value): 91.83
P286A-3, run 3, read-out: EC50 (best-fit value)
  pEC50: 9.08
S279A-1
  Best-fit Bottom: 9.876
  Best-fit Span: 98.05
  Best-fit Top: 107.9
  LogEC50: -9.015
S279A-1, read-out: EC50
  pEC50: 9.02
S279A-2
  Best-fit Span: 101.7
  Best-fit Top: 106.6
  LogEC50: -8.897
S279A-2, read-out: EC50
  pEC50: 8.90
S279A-3
  Best-fit Bottom: 4.156
  Best-fit Span: 86.31
  Best-fit Top: 90.47
  LogEC50: -8.897
S285A-1, run 1
  Bottom (best-fit value): 7.122
  LogEC50 (best-fit value): -9.176
  Span (best-fit value): 90.01
  Top (best-fit value): 97.13
S285A-1, run 1, read-out: EC50 (best-fit value)
  pEC50: 9.18
S285A-2, run 2
  Bottom (best-fit value): 7.037
  LogEC50 (best-fit value): -9.15
  Span (best-fit value): 69.44
  Top (best-fit value): 76.48
S285A-2, run 2, read-out: EC50 (best-fit value)
  pEC50: 9.15
S285A-3, run 3
  Bottom (best-fit value): -3.857
  LogEC50 (best-fit value): -9.167
  Span (best-fit value): 92.79
  Top (best-fit value): 88.94
S285A-3, run 3, read-out: EC50 (best-fit value)
  pEC50: 9.17
SSTR2 I195A-1, run 1
  Best-fit Bottom, cAMP inhibition: 1.138
